“And” between values parts separate entries of the source, which are not always exact repeats. Equal entries are not always repeated.
Biological target: wild-type Epidermal Growth Factor Receptor (EGFR) (Homo sapiens (Human), UniProt P00533)
Experiment: WT-EGFR kinase assay (TR-FRET, 2 mM ATP)
Format: biochemical
Conditions: median or individual measurements, Table 3, read-out: EGFR Wildtyp-2mM ATP IC50 [mol/l] (median)
Excerpt: Inhibitory activity of compounds of the present invention against wild-type Epidermal Growth Factor Receptor (EGFR) was quantified employing the TR-FRET based EGFR assay as described in the following paragraphs.
Recombinant fusion protein of N-terminal Glutathion-S-Transferase (GST) and a fragment of human EGFR (amino acids R669 to A1210), expressed in Sf9 insect cells and purified via affinity chromatography using Glutathion Sepharose as described above, was used as kinase. As substrate for the kinase reaction the biotinylated peptide biotin-Ahx-AEEEEYFELVAKKK (C-terminus in amide form) was used which can be purchased e.g. form the company Biosynthan GmbH (Berlin-Buch, Germany).
For the assay 50 nl of a 100 fold concentrated solution of the test compound in DMSO was pipetted into either a black low volume 384 well microtiter plate or a black 1536 well microtiter plate (both Greiner Bio-One, Frickenhausen, Germany), 2 μL of a solution of EGFR in aqueous assay buffer [50 mM Hepes pH 7.0, 10 mM MgCl2, 1 mM dithiothreitol, 0.5 mM EGTA, 0.3 mM activated sodium ortho-vanadate, 0.005% (w/v) bovine serum albumin, 0.005% (v/v) Tween-20] were added and the mixture was incubated for 15 min at 22° C. to allow pre-binding of the test compounds to the enzyme before the start of the kinase reaction. Then the kinase reaction was started by the addition of 3 μL of a solution of adenosine-tri-phosphate (ATP, 3.33 mM=>final conc. in the 5 μL assay volume is 2 mM) and substrate (1.67 μM=>final conc. in the 5 μL assay volume is 1 μM) in assay buffer and the resulting mixture was incubated for a reaction time of 30 min at 22° C. The concentration of EGFR was adjusted depending of the activity of the enzyme lot and was chosen appropriate to have the assay in the linear range, typical concentration was 7.6 pg/μL. The reaction was stopped by the addition of 3 μL of a solution of HTRF detection reagents (83.3 nM streptavidine-XL665 [Cisbio Bioassays, Codolet, France] and 1.67 nM PT66-Tb-Cryptate, a terbium-cryptate labelled anti-phospho-tyrosine antibody from Cisbio Bioassays [instead of the PT66-Tb-cryptate PT66-Eu-Chelate from Perkin Elmer can also be used]) in an aqueous EDTA-solution (133.3 mM EDTA, 0.2% (w/v) bovine serum albumin in 50 mM HEPES pH 7.5).
The resulting mixture was incubated 1 h at 22° C. to allow the binding of the biotinylated phosphorylated peptide to the streptavidine-XL665 and the PT66-Tb-Cryptate. Subsequently the amount of phosphorylated substrate was evaluated by measurement of the resonance energy transfer from the PT66-Tb-Cryptate to the streptavidine-XL665. Therefore, the fluorescence emissions at 620 nm and 665 nm after excitation at 337 nm were measured in a HTRF reader, e.g. a Pherastar (BMG Labtechnologies, Offenburg, Germany) or a Viewlux (Perkin-Elmer). The ratio of the emissions at 665 nm and at […] was taken as the measure for the amount of phosphorylated substrate. The data were normalised (enzyme reaction without inhibitor=0% inhibition, all other assay components but no enzyme=100% inhibition).

Chain of wild-type Epidermal Growth Factor Receptor (EGFR) (P00533 669-1210): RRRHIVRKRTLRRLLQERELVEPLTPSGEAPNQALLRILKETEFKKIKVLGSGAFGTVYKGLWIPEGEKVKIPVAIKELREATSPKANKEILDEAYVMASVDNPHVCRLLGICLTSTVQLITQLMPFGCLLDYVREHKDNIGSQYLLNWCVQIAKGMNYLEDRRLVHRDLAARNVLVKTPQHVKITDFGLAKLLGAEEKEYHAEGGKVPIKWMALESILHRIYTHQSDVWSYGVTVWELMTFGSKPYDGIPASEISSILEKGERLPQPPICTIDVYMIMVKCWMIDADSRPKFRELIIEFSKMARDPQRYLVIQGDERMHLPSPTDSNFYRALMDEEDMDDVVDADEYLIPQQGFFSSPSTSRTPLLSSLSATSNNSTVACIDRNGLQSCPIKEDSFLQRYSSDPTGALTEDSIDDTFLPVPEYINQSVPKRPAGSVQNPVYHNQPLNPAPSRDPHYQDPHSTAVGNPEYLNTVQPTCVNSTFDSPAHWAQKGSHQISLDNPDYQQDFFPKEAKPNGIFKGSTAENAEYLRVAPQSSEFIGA

Row | SMILES | IC50
1 | CN1CC(CC(F)(F)F)c2[nH]c(-c3ccnc(NC(=O)C(CC(F)F)c4ccc(F)cc4)c3)c(Nc3cscn3)c2C1=O (single isomer, unassigned) [Example 56, (2R or S)-4,4-difluoro-2-(4-fluorophenyl)-N-{4-[(7R or S)-5-methyl-4-oxo-3-[(1,3-thiazol-4-yl)amino]-7-(2,2,2-trifluoroethyl)-4,5,6,7-tetrahydro-1H-pyrrolo[3,2-c]pyridin-2-yl]pyridin-2-yl}butanamide] | > 20000 nM
2 | CC1CN(C)C(=O)c2c1[nH]c(-c1ccnc(NC(=O)Cc3ccc(F)cc3)c1)c2Nc1ccccc1 (single isomer, unassigned; (+)) [Example 8, (+)-N-{4-[3-anilino-5,7-dimethyl-4-oxo-4,5,6,7-tetrahydro-1H-pyrrolo[3,2-c]pyridin-2-yl]pyridin-2-yl}-2-(4-fluorophenyl)acetamide] | 3000 nM
3 | O=C1N[C@@H]2CCC[C@@H]2c2[nH]c(-c3ccnc(NC(=O)C(CC(F)F)c4ccc(F)cc4)c3)c(Nc3ccccc3)c21 (single isomer, unassigned; (+)) [Example 22, (+)-(2R or S)—N-{4-[cis-3-anilino-4-oxo-1,4,5,5a,6,7,8,8a-octahydrocyclopenta[b]pyrrolo[2,3-d]pyridin-2-yl]pyridin-2-yl}-4,4-difluoro-2-(4-fluorophenyl)butanamide] | > 20000 nM
4 | O=C1N[C@@H]2CCC[C@@H]2c2[nH]c(-c3ccnc(NC(=O)C(CC(F)F)c4ccc(F)cc4)c3)c(Nc3ccccc3)c21 (single isomer, unassigned; (+)) [Example 25, (+)-(2R or S)—N-{4-[cis-3-anilino-4-oxo-1,4,5,5a,6,7,8,8a-octahydrocyclopenta[b]pyrrolo[2,3-d]pyridin-2-yl]pyridin-2-yl}-4,4-difluoro-2-(4-fluorophenyl)butanamide] | > 20000 nM
5 | CC1CN(C)C(=O)c2c1[nH]c(-c1ccnc(NC(=O)Cc3ccc(F)cc3)c1)c2Nc1ccccc1 (single isomer, unassigned; (-)) [Example 7, (−)-N-{4-[3-anilino-5,7-dimethyl-4-oxo-4,5,6,7-tetrahydro-1H-pyrrolo[3,2-c]pyridin-2-yl]pyridin-2-yl}-2-(4-fluorophenyl)acetamide] | 1300 nM
6 | O=C1N[C@@H]2CCC[C@@H]2c2[nH]c(-c3ccnc(NC(=O)C(CC(F)F)c4ccc(F)cc4)c3)c(Nc3ccccc3)c21 (single isomer, unassigned; (-)) [Example 23, (−)-(2R or S)—N-{4-[cis-3-anilino-4-oxo-1,4,5,5a,6,7,8,8a-octahydrocyclopenta[b]pyrrolo[2,3-d]pyridin-2-yl]pyridin-2-yl}-4,4-difluoro-2-(4-fluorophenyl)butanamide] | 13000 nM
7 | O=C1N[C@@H]2CCC[C@@H]2c2[nH]c(-c3ccnc(NC(=O)C(CC(F)F)c4ccc(F)cc4)c3)c(Nc3ccccc3)c21 (single isomer, unassigned; (-)) [Example 24, (−)-(2R or S)—N-{4-[cis-3-anilino-4-oxo-1,4,5,5a,6,7,8,8a-octahydrocyclopenta[b]pyrrolo[2,3-d]pyridin-2-yl]pyridin-2-yl}-4,4-difluoro-2-(4-fluorophenyl)butanamide] | 310 nM
8 | CCC1CNC(=O)c2c1[nH]c(-c1ccnc(NC(=O)C(CC(F)F)c3ccc(F)cc3)c1)c2Nc1ccccc1 (stereo not shown) [Example 4, N-{4-[3-anilino-7-ethyl-4-oxo-4,5,6,7-tetrahydro-1H-pyrrolo[3,2-c]pyridin-2-yl]pyridin-2-yl}-4,4-difluoro-2-(4-fluorophenyl)butanamide] | 1200 nM
9 | CN1CC(CC(F)(F)F)c2[nH]c(-c3ccnc(NC(=O)C(CC(F)F)c4ccc(F)cc4)c3)c(Nc3ccccc3)c2C1=O (stereo not shown) [Example 17, N-{4-[3-anilino-5-methyl-4-oxo-7-(2,2,2-trifluoroethyl)-4,5,6,7-tetrahydro-1H-pyrrolo[3,2-c]pyridin-2-yl]pyridin-2-yl}-4,4-difluoro-2-(4-fluorophenyl)butanamide] | > 20000 nM and > 5700 nM and 3700 nM and 3200 nM
10 | Cn1cc(CC2CC2)c2[nH]c(-c3ccnc(NC(=O)Cc4ccc(F)cc4)c3)c(Nc3ccccc3)c2c1=O [Example 32, N-{4-[3-anilino-7-(cyclopropylmethyl)-5-methyl-4-oxo-4,5-dihydro-1H-pyrrolo[3,2-c]pyridin-2-yl]pyridin-2-yl}-2-(4-fluorophenyl)acetamide] | 860 nM
11 | Cc1ccccc1Nc1c(-c2ccnc(NC(=O)Cc3ccc(F)cc3)c2)[nH]c2c(CC(F)(F)F)cn(C)c(=O)c12 [Example 33, 2-(4-fluorophenyl)-N-{4-[5-methyl-3-(2-methylanilino)-4-oxo-7-(2,2,2-trifluoroethyl)-4,5-dihydro-1H-pyrrolo[3,2-c]pyridin-2-yl]pyridin-2-yl}acetamide] | 7 nM
12 | Cn1cc(CC(F)(F)F)c2[nH]c(-c3ccnc(NC(=O)Cc4ccc(F)cc4)c3)c(Nc3ccccc3)c2c1=O [Example 34, N-{4-[3-anilino-5-methyl-4-oxo-7-(2,2,2-trifluoroethyl)-4,5-dihydro-1H-pyrrolo[3,2-c]pyridin-2-yl]pyridin-2-yl}-2-(4-fluorophenyl)acetamide] | 20 nM
13 | Cn1cc(CC(F)F)c2[nH]c(-c3ccnc(NC(=O)Cc4ccc(F)cc4)c3)c(Nc3ccccc3)c2c1=O [Example 45, N-{4-[3-anilino-7-(2,2-difluoroethyl)-5-methyl-4-oxo-4,5-dihydro-1H-pyrrolo[3,2-c]pyridin-2-yl]pyridin-2-yl}-2-(4-fluorophenyl)acetamide] | 150 nM

Source: patent publication US20230365554A1, “SUBSTITUTED PYRROLO-PYRIDINONE DERIVATIVES AND THERAPEUTIC USES THEREOF” (The Broad Institute, Inc., priority 2020, published 2023)
